Laboratory results published in patent US20240299388A1, “ERK1/2 AND SHP2 INHIBITORS COMBINATION THERAPY” (Erasca, Inc., priority 2021, published 2024).

Tests used:
[1] = system: KRAS G12V NSCLC CDX model NCI-H441; test: In vivo CDX xenograft efficacy, NCI-H441; parameters: species or system Balb/c nude mice; conditions: oral
Procedure: (§1) The vehicle/control article, 0.5% Methyl Cellulose & 0.1% Tween 80 or 100 mM acetic acid in deionized water with pH adjustment to 4.8-5.0, was prepared and stored under ambient conditions throughout the study period.
(§2) The test article, compound 1, was freshly prepared in vehicle of 0.5% Methyl Cellulose & 0.1% Tween 80 weekly and stored under ambient conditions. The combination agent, compound 2, was freshly prepared in vehicle of 100 mM acetic buffer weekly and stored under ambient conditions.
(§3) Female Balb/c nude mice were purchased from the Beijing Vital River Laboratory Animal Technology Co., Ltd. Mice were hosted at special pathogen-free (SPF) environment of vivarium facility and acclimated to their new environment for at least 3 days prior to initiation of any experiments. Mice were between 6-8 weeks of age at the time of implantation.
NCI-H441 is a human NSCLC cell line that harbors a KRAS^G12V mutation. The NCI-H441 cell line was purchased from the American Type Culture Collection (ATCC® HTB-174™). NCI-H441 cells were cultured in medium containing RPMI-1640 plus 10% Fetal Bovine Serum (FBS), at 37° C. in an atmosphere of 5% CO2 in air. NCI-H441 cells in 200 μL cell suspensions containing 5×10^6 cells mixed with 50% Matrigel were implanted into mice subcutaneously. When tumor volumes reached a mean of 200 mm^3, tumor-bearing mice were randomized into different groups with 8 mice in each group and treatment started on the day of randomization.
(§4) Mice were dosed by oral administration of vehicle control solution, compound 1, or compound 2 in monotherapy treatment groups. Mice were dosed by oral administration of combinations, including compound 1 with compound 2. The dosing volume was 5 mL/kg for each compound and interval of BID regimen was 8 hours. In the combination of compound 1 with compound 2, compound 1 was dosed at one-hour post compound 2 QD or first BID dose. […] The study was terminated at the end of 4-week treatment or when tumor volume in vehicle control group reached 2,000 mm^3.

[2] = system: KRAS G12A NSCLC CDX model NCI-H2009; test: In vivo CDX xenograft efficacy, NCI-H2009; parameters: species or system Balb/c nude mice; conditions: oral
Procedure: as §1, §2, §3
NCI-H2009 is a human NSCLC cell line that harbored a KRAS^G12A mutation. The NCI-H2009 cell line was purchased from the American Type Culture Collection (ATCC® CRL-5911). NCI-H2009 cells were cultured in medium containing RPMI-1640 plus 10% Fetal Bovine Serum (FBS) and supplemented with Glutamax and pyruvate at 37° C. in an atmosphere of 5% CO2 in air. NCI-H2009 cells in 100 μL cell suspensions containing 5×10^6 cells mixed with 50% Matrigel were implanted into mice subcutaneously. When tumor volumes reached a mean of 200 mm^3, tumor-bearing mice were randomized into different groups with 8 mice in each group and treatment started on the day of randomization.
as §4

## COCOC[C@H]1C[C@H]2COc3c(Sc4cnc(N5CCC6(CC5)CO[C@@H](C)[C@H]6N)c(CO)n4)ccnc3N2C1 [Compound 2, (3-((3S,4S)-4-amino-3-methyl-2-oxa-8-azaspiro[4.5]decan-8-yl)-6-(((6aS,8S)-8-((methoxymethoxy)methyl)-6a,7,8,9-tetrahydro-6H-pyrido[3,2-b]pyrrolo[1,2-d][1,4]oxazin-4-yl)thio)pyrazin-2-yl)methanol]
[1]; monotherapy 15 mg/kg QD
  TGI: 87%
[1]; monotherapy 30 mg/kg QD
  TGI: 101%
[2]; monotherapy 15 mg/kg QD
  TGI: 73%
[2]; monotherapy 30 mg/kg QD
  TGI: 90%

## Cc1cnc(NC2CCOCC2)nc1-n1cnc(C(=O)N[C@H](CN)c2cc(F)cc(Cl)c2)c1 [Compound 1, (S)—N-(2-amino-1-(3-chloro-5-fluorophenyl)ethyl)-1-(5-methyl-2-((tetrahydro-2H-pyran-4-yl)amino)pyrimidin-4-yl)-1H-imidazole-4-carboxamide]
[1]; monotherapy 30 mg/kg BID
  TGI: 115%
[1]; monotherapy 30 mg/kg QD
  TGI: 94%
[2]; monotherapy 30 mg/kg BID
  TGI: 93%
